Assay results as given in ChEMBL document CHEMBL5725778, “Condensed ring derivative, and preparation method, intermediate, pharmaceutical composition and use thereof” (2018).

What follows are compounds tested against T1, Solute carrier family 22 member 12 (Homo sapiens, UniProt Q96S37) (assay: hURAT1 Inhibition Assay: Human embryonic kidney cells (HEK293) was incubated in DMEM tissue culture medium, at 37° C., under 5% CO2 and 95% air atmosphere. TransIT-293 transfection agent (MIRUS BIO, Cat. No. MIR2706) and model URAT1 were used to construct transfected HEK293 cells. Transfected HEK293/hURAT1 cells were used to the test for 14C-uric acid transport activity. HEK293/hURAT1 cells were seeded in a 96-well plate (BD, Cat. No. 356461) fully coating with poly-D-lysine at a density of 6×10^4 cells per well. Cells were incubated at 37° C. for at least 12 hrs in the calorstat, and then washed with pre-heated washing buffer (125 mM sodium gluconate, 10 mM HEPES pH=7.4) at an amount of 200 μL per well to wash out the culture medium. The uric acid [8-14C] (ARC, Cat. No. ARC0513-250UCI) containing or not containing the compound was added to 50 μL HBSS buffer which was free of chloric ion each well (HBSS buffer: 125 mM sodium gluconate, 4.8 mM potassium gluconate, 1.3 mM calcium gluconate, 1.2 mM potassium dihydrogen phosphate, 1.2 mM magnesium sulfate, 5.6 mM glucose, 25 mM HEPES pH=7.4) to make the specific concentration of the uric acid 1 μCi per well. The incubating solution was removed after 10 mins incubation, followed by adding 100 μL cold washing buffer, after washing with this buffer for 3 times, the buffer was completely removed from the well.).
T1 sequence (Q96S37 whole entry): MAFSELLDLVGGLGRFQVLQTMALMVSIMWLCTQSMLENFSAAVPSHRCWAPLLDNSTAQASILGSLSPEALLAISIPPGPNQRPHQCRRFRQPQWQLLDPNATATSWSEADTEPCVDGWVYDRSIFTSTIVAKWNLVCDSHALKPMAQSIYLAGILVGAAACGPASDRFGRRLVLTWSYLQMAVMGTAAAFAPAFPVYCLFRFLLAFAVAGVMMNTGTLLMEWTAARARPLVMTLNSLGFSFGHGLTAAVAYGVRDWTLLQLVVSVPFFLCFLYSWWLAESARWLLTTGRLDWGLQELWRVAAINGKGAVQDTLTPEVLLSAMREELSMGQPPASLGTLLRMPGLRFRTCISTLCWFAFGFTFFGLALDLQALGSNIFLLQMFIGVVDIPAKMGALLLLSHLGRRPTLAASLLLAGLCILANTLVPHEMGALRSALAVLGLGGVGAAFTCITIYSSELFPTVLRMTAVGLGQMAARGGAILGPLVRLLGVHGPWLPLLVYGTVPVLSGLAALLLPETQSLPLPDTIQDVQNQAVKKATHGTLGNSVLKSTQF

Compared with `C[C@H](CC(=O)O)c1cc2c(-c3ccc(C#N)c4ccccc34)cncc2s1`, `C[C@@H](CC(=O)O)c1cc2c(-c3ccc(C#N)c4ccccc34)cncc2s1` is 3.4-fold higher in IC50: 11 nM for the first, 37 nM for the second.

First: C[C@@H](CC(=O)O)c1cc2cncc(-c3ccc(C#N)cc3)c2s1
Second: C[C@H](CC(=O)O)c1cc2cncc(-c3ccc(C#N)cc3)c2s1
The IC50 of the first is 49-fold higher: 1860 nM for the first, 38 nM for the second.

First: C[C@@H](Oc1ccc2cncc(-c3ccc(C#N)cc3)c2c1)C(=O)O
Second: C[C@H](Oc1ccc2cncc(-c3ccc(C#N)cc3)c2c1)C(=O)O
The IC50 of the first is 2.1-fold higher: 5520 nM for the first, 2690 nM for the second. The second is the more potent here.

First: C[C@H](CC(=O)O)c1cc2cncc(-c3ccc(C#N)c4ccccc34)c2s1
Second: C[C@@H](CC(=O)O)c1cc2cncc(-c3ccc(C#N)c4ccccc34)c2s1
The IC50 of the first is 58-fold higher: 580 nM for the first, 10 nM for the second.

In the case of `CC(C)(Sc1ccc2cncc(-c3ccc(C#N)c4ccccc34)c2c1)C(=O)O`, the IC50 is reported as 8 nM.
